From patent publication US8535672B2, “Broad-spectrum in-vivo effective superantigen toxin antagonists based on the interaction between CD28 and the superantigen and uses thereof” (Yissum Research Development of the Hebrew University of …, priority 2003, dated 2013)
Entries after “also recorded” stand apart in the source; their conditions may differ. Non-standard residues stand in square brackets, D forms with d. Residues, ends and D or L forms follow the SMILES beside them. No end group written: not given here.

Columns and labels:
[1] = tested on: IL2 and IFN-γ mRNA induced by SEB in human PBMC; type: cell-based
[2] = tested on: IL10 and IL4 induced by SEB in human PBMC; type: cell-based
[3] = target: T1, SEB (Staphylococcus aureus, UniProt P01552); design: species or system BALB/c mice; details: mouse
[4] = target: T2, PD-1 (Homo sapiens, UniProt Q15116); type: binding
T2 construct: comprise the extracellular 37-162, 19-152, 21-141, 24-167 and 20-239 amino acid, respectively, of the mature human ligands domain; purchased R&D Systems; host or cells: mouse myeloma NS0 cells
T2 sequence (Q15116 24-167): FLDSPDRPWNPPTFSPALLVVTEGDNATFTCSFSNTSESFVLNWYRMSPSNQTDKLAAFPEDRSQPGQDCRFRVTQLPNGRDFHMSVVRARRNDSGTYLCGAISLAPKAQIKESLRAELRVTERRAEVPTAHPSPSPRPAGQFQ

[5] = target: T3, sCD28/sB7-2 (Homo sapiens, UniProt P10747); type: binding
T3 construct: comprise the extracellular 37-162, 19-152, 21-141, 24-167 and 20-239 amino acid, respectively, of the mature human ligands domain; purchased R&D Systems 342-CD (sCD28); host or cells: mouse myeloma NS0 cells

[6] = tested on: IL2 and IFN-γ mRNA in human PBMC; type: cell-based
[7] = tested on: IL2 and IFN-γ mRNA induced by αCD28, αCD3, sB7-2 in human PBMC; type: cell-based
[8] = mouse, in vivo
[9] = tested on: IL2 and IFN-γ mRNA induced by TSST-1 in human PBMC; type: cell-based
[10] = target: T4, soluble CD28 (sCD28) (Homo sapiens, UniProt P10747); type: binding
T4 construct: comprise the extracellular 37-162, 19-152, 21-141, 24-167 and 20-239 amino acid, respectively, of the mature human ligands domain; purchased R&D Systems 342-CD; host or cells: mouse myeloma NS0 cells

[11] = target: T1, SEB
[12] = tested on: p14A; type: binding
[13] = target: T1, SEB; remark: listed apart in the source
[14] = target: T5, sCD28 (Homo sapiens, UniProt P10747); experiment: ELISA: binding of anti-CD28 to immobilized sCD28 in presence of antagonist peptide; details: 1,000-fold diluted anti-CD28, p14A from 0.1 μg per ml
T5 construct: comprise the extracellular 37-162, 19-152, 21-141, 24-167 and 20-239 amino acid, respectively, of the mature human ligands domain; purchased R&D Systems 342-CD; host or cells: mouse myeloma NS0 cells
Method: An amount of 250 ng sCD28 was immobilized on an ELISA microtiter plate and binding of anti-CD28 at the two indicated dilutions (corresponding to 250 and 125 ng/ml, respectively) was measured by use of a secondary antibody coupled to alkaline phosphatase, recording absorbency at 450 nm. p14A was either absent (Control) or present at the indicated concentrations. Abbreviations: bin. (binding), Un. (units), cont. (control), ml (milliliter), μg (microgram), α (anti).
Yet another assay was devised to show a direct interaction between antagonist peptide and sCD28. The inventors developed an enzyme-linked immune sorbent assay (ELISA) in which sCD28 is immobilized in the wells of a microtiter ELISA plate and binding of anti-CD28 is measured by use of a secondary antibody coupled to alkaline phosphatase. It is seen in FIG. 16 that binding of 1,000-fold diluted anti-CD28 to the plate was inhibited by p14A even at a concentration of only 0.1 μg per ml. […] Thus, antagonist peptide p14A is a powerful inhibitor of the interaction between anti-CD28 and sCD28.

[15] = target: T5, sCD28; type: binding
[16] = tested on: IL10 in human PBMC; type: cell-based

Compound: IHKPHHHRTPLW (Synthetic peptide pf8)
- antagonism of SEB-mediated induction of IL2 and IFN-γ mRNA [1]: inhibited

Compound: PAVVLASS (Synthetic peptide p2TB)
- effect on SEB-mediated induction of IL10 / IL4 (Th2 response) [2]: left induction of IL10 intact
- antagonism of SEB-mediated induction of IL2 and IFN-γ mRNA [1]: inhibited
- molar excess (ratio) over SEB at which protective in vivo [3]: 2 fold
- protection of mice from lethal SEB challenge ([3]; in vivo): protected mice from lethal challenge

Compound: YVIDPEPCP (Synthetic peptide p1TB)
- effect on SEB-mediated induction of IL10 / IL4 (Th2 response) [2]: left induction of IL10 intact
- antagonism of SEB-mediated induction of IL2 and IFN-γ mRNA [1]: inhibited
- molar excess (ratio) over SEB at which protective in vivo [3]: 3.6 fold
- protection of mice from lethal SEB challenge ([3]; in vivo): protected mice from lethal challenge

Compound: CC(C)C[C@H](NC(=O)[C@H](CCC(=O)O)NC(=O)[C@H](CCC(N)=O)NC(=O)[C@@H](NC(=O)[C@@H](NC(=O)[C@H](C)NC(=O)[C@H](CCCCN)NC(=O)[C@H](CCCCN)NC(=O)[C@H](CCCCN)NC(=O)[C@H](CC(N)=O)NC(=O)[C@H](Cc1ccc(O)cc1)NC(=O)[C@@H](N)CS)[C@@H](C)O)C(C)C)C(=O)N[C@@H](CC(=O)O)C(=O)N[C@@H](CS)C(=O)O [p12C] (H-CYNKKKATVQELDC-OH)
- binding of PD-1 to immobilized peptide [4]: failed to bind significantly
- antagonism of SEB-mediated induction of IL2 and IFN-γ mRNA [1]: as active as p14A

Compound: GEINGSAN (Synthetic peptide p2TC)
- antagonism of SEB-mediated induction of IL2 and IFN-γ mRNA [1]: inhibited
- protection of mice from lethal SEB challenge ([3]; in vivo): protected mice from lethal challenge

Compound: pSEB(41-61): a peptide that lacks antagonist activity (IDQFLYFDLIYSIKDTKLGNY; UniProt P01552 68-88, looked up, fragment) [reference compound]
- effect on plasmon resonance signal for binding of sCD28 to sB7-2 [5]: only slightly

Compound: AAAAAAAHVKGKHLCP [pTA]
- effect on SEB-mediated induction of IL10 / IL4 (Th2 response) [2]: left the induction of IL10 and IL4 intact
- induction of Th1 cytokine mRNA by the substance alone (agonist activity) [6]: Neither pTA nor AAAAAAAAAAMYPPPY (SEQ ID NO: 7) alone were active as inducer
- antagonism of SEB-mediated induction of IL2 and IFN-γ mRNA [1]: blocked
- effect on induction of IL2/IFN-γ mRNA by αCD28 alone [7]: inhibited

Compound: FHKHKNPGSPII [pc3]
- toxicity of peptide alone [8]: lacked detectable toxicity
- effect on SEB-mediated induction of IL10 / IL4 (Th2 response) [2]: failed to inhibit induction of IL10
- induction of Th1 cytokine mRNA by the substance alone (agonist activity) [6]: lacked superantigen agonist activity
- antagonism of SEB-mediated induction of IL2 and IFN-γ mRNA [1]: inhibited
- molar excess (ratio) over SEB at which protective in vivo [3]: about equimolar ratio
- mice surviving SEB challenge / group ([3]; in vivo): 7/10

Compound: AAAAAAAAAAMYPPPY [control peptide containing another motif in the sCD28 molecule, reference compound]
- induction of Th1 cytokine mRNA by the substance alone (agonist activity) [6]: Neither pTA nor AAAAAAAAAAMYPPPY (SEQ ID NO: 7) alone were active as inducer
- antagonism of SEB-mediated induction of IL2 and IFN-γ mRNA [1]: did not show antagonist activity

Compound: HVKGKHLCP (Synthetic peptide p1TA)
- concentration without detectable toxicity, relative to that needed for protection [8]: 25 fold
- toxicity of peptide alone [8]: lacked detectable toxicity
- antagonism of SEB-mediated induction of IL2 and IFN-γ mRNA [1]: antagonized
- molar excess (ratio) over SEB at which protective in vivo [3]: 3.6 fold
- mice surviving SEB challenge / group ([3]; in vivo): 7/10
- inhibition of induction of IL2 and IFN-γ mRNA by TSST-1 [9]: inhibited

Compound: APMYHKHRLEKH (Synthetic peptide pe6)
- antagonism of SEB-mediated induction of IL2 and IFN-γ mRNA [1]: inhibited

Compound: SPMLVAYD [p2TA]
- concentration without detectable toxicity, relative to that needed for protection [8]: 125 fold
- toxicity of peptide alone [8]: lacked detectable toxicity
- antagonism of SEB-mediated induction of IL2 and IFN-γ mRNA [1]: antagonized
- molar excess (ratio) over SEB at which protective in vivo [3]: 0.8 fold
- mice surviving SEB challenge / group ([3]; in vivo): 8/10
- inhibition of induction of IL2 and IFN-γ mRNA by TSST-1 [9]: inhibited

Compound: C-EKAKYTQLVKDN-C (CEKAKYTQLVKDNC; terminal cysteines; Sequence of artificial peptide p12Csc) [randomly scrambled p12C, reference compound]
- binding to CD28 (SPR) [10]: failed to bind CD28

Compound: sCD28: recombinant soluble CD28: extracellular domain of human CD28 fused to His6-tagged Fc of human IgG (R&D Systems 342-CD)
- competition of anti-SEB Ab binding to SEB (ELISA) [11]: about 75%
- induction of Th1 cytokine mRNA by the substance alone (agonist activity) [6]: did not induce IFN-γ mRNA
- antagonism of SEB-mediated induction of IL2 and IFN-γ mRNA [1]: dose-dependent manner
- inhibition of SEB induction of IFN-γ mRNA [1]: about twenty fold
- inhibition of SEB induction of IL-2 mRNA [1]: 3.5 fold
- inhibition of anti-p14A Ab binding to p14A (ELISA) [12]: over 90%
- inhibition of binding of anti-SEB Ab to SEB [13]: 84%
- reduction of anti-SEB binding to SEB [13]: about 5 fold
- effect on induction of IL2/IFN-γ mRNA by αCD28 alone [7]: inhibited

Compound: CHGHLVPKK (Synthetic scrambled control peptide p1TAsc) [scrambled form of p1TA, reference compound]
- antagonism of SEB-mediated induction of IL2 and IFN-γ mRNA [1]: lacked antagonist activity
- protection of mice from lethal SEB challenge ([3]; in vivo): failed to provide protection

Compound: YESQLCCQL (Synthetic peptide p1TC)
- antagonism of SEB-mediated induction of IL2 and IFN-γ mRNA [1]: inhibited
- protection of mice from lethal SEB challenge ([3]; in vivo): protected mice from lethal challenge

Compound: daV Q Y N K K K A T V Q E L Dda ([dA]VQYNKKKATVQELD[dA]) [p14A]
- effect on plasmon resonance signal for binding of sCD28 to sB7-2 [5]: enhanced significantly
- effect on binding of anti-CD28 to sCD28 (ELISA) [14]: inhibited
- binding to CD28 (SPR) [10]: bind directly to CD28
- effect on plasmon resonance signal for binding of anti-CD28 to sCD28 [15]: reduced
- effect on SEB-mediated induction of IL10 / IL4 (Th2 response) [2]: left induction of the Th2-type cytokines IL-10 and IL-4 intact
- antagonism of SEB-mediated induction of IL2 and IFN-γ mRNA [1]: blocked
- molar excess (ratio) over SEB at which protective in vivo [3]: 12 fold
- protection from lethal SEB challenge ([3]; in vivo): 70%
- effect on induction of IL10 by αCD28/αCD3 [16]: resistant
- effect on induction of IL-10 by sB7-2/anti-CD3 [16]: largely resistant
- effect on induction of IFN-γ mRNA by anti-CD3 alone [7]: did not inhibit
- effect on induction of IFN-γ mRNA by anti-CD3 with sB7-2 [7]: abrogated
- effect on induction of IFN-γ mRNA by sB7-2 alone [7]: shifted the induction by sB7-2 alone to earlier times; also recorded: stimulated induction significantly
- effect on induction of IL2/IFN-γ mRNA by αCD28 alone [7]: blocked
- effect on induction of IL2/IFN-γ mRNA by αCD28 and αCD3 combined [7]: eliminated virtually in full

Compound: SHFTHNRHGHST (Synthetic Peptide pe12)
- toxicity of peptide alone [8]: lacked detectable toxicity
- effect on SEB-mediated induction of IL10 / IL4 (Th2 response) [2]: failed to inhibit induction of IL10
- induction of Th1 cytokine mRNA by the substance alone (agonist activity) [6]: lacked superantigen agonist activity
- antagonism of SEB-mediated induction of IL2 and IFN-γ mRNA [1]: strongly inhibited
- molar excess (ratio) over SEB at which protective in vivo [3]: about equimolar ratio
- mice surviving SEB challenge / group ([3]; in vivo): 8/10

Compound: WHAHPHKKPVVA [pd7]
- toxicity of peptide alone [8]: lacked detectable toxicity
- effect on SEB-mediated induction of IL10 / IL4 (Th2 response) [2]: failed to inhibit induction of IL10
- induction of Th1 cytokine mRNA by the substance alone (agonist activity) [6]: lacked superantigen agonist activity
- antagonism of SEB-mediated induction of IL2 and IFN-γ mRNA [1]: inhibited
- mice surviving SEB challenge / group ([3]; in vivo): 4/10
